Publication PMC12970513, “Unsaturated Phosphorus Electrophiles to Probe Protein Tyrosine Phosphatases” (Angewandte Chemie (International Ed. in English), 2026)

Legend:
[1] = Stability of SM-PN and SM-PO in aqueous buffer by 31P NMR; format: physicochemical; details: room temperature
Method: Next, we assessed the stability of the phosphonamidic and phosphonic acid in aqueous buffers at pH 2, pH 3.5, pH 7.4, pH 8.5, and pH 11. Therefore, SM‐PN and SM‐PO were added in the corresponding buffers and monitored for 48 h at room temperature via ^31P‐NMR with triphenylphosphinoxide (TPPO) as an internal standard (Figure S2). […] Furthermore, we evaluated the stability of the peptide probes bio‐PN and bio‐PO in human lysate for subsequent experiments. These peptides were added in HEK293T cell lysate, and changes in stability were recorded for 18 h via ^31P‐NMR, in which inorganic phosphate served as an internal standard. […] Nonetheless, both peptides display sufficient stability for follow‐up studies.
Figure S2: pH dependent stability of phosphonamidic and phosphonic acids at room temperature monitored by ^31P NMR. a) Decay of starting material SM-PN. […] At pH 2.0 the compound was already hydrolyzed in minutes before the next measurement. b) Decay of SM-PO in identical conditions.
Internal standard triphenylphosphine oxide (TPPO, 12 µL of a 100 mM stock in DMSO, final concentration 2 mM) and SM-PN or SM-PO (36 µL of a 50 mM stock in DMSO, final concentration 3 mM) were added in microcentrifuge tubes containing 552 µL of each test buffer solution (0.1% TFA pH 2, 50 mM NaOAc pH 3.5, 50 mM Tris pH 7.4, 50 mM Tris pH 8.5, 50 mM TEAB pH 11.0, containing 10% D2O (492 μL buffer and 60 μL D2O) and mixed right before the measurement. The mixtures were transferred to NMR tubes and one-dimensional ^31P-NMR spectra were recorded for each sample at room temperature, in intervals of 4 h over the course of 48 h on a Bruker AV-III 600 or AV-III 300 spectrometer. For analysis, the spectra were plotted in MestReNova and the intensity of the ^31P-NMR signal was analyzed by integration.

[2] = Thiol reactivity with glutathione (UPLC-UV/MS); details: 1 mM compound, 10 mM GSH (10 equivalents), 25°C / room temperature, 16 h, caffeine (peptides) or TPPO (SM) internal standard, n = 3; for consumption of starting material to glutathione adduct, pH 7.4: Tris pH 7.4, 10% DMSO; for consumption of starting material to glutathione adduct, pH 8.5: Tris pH 8.5, 10% DMSO
Method: After verifying the stability of the phosphonamidic and phosphonic acid warheads at physiological and slightly basic pH, we aimed to investigate the reactivity towards endogenous thiol concentrations. For this, 1 mM bio‐PN or bio‐PO and 1 mM caffeine as an internal standard, as well as 1 mM SM‐PN or SM‐PO and 1 mM TPPO (internal standard), were incubated at room temperature with 10 equivalents (10 mM) glutathione (GSH), and the outcome was followed by UPLC‐MS (Figure S4).
FIGURE 3 Time‐dependent decay of bio‐PN, bio‐PO, SM‐PN, and SM‐PO (1 mM) in the presence of 10 mM GSH with 1 mM caffeine or TPPO as internal standard. The assay was performed at 25°C in Tris buffer (10% DMSO) at (a) pH 7.4, (b) pH 8.5. Results are presented as mean ± standard deviation (n = 3). (c) Labeling conditions to assess by ESI‐MS the ability of bio‐PN, bio‐PO, SM‐PN, and SM‐PO to covalently bind recombinant PTP1B. Stacked deconvoluted MS spectra of the initial time point (t0) of PTP1B labeling with (d) bio‐PO after 4 h: full labeling, (e) bio‐PN after 20 h: ∼80% labeling, (f) SM‐PO after 20 h: no labeling, (g) SM‐PN after 20 h: no labeling.
Figure S4: Monitoring of thiol reactivity with GSH as a model thiol of peptide and small molecule phosphonamidic and phosphonic acids by UPLC-UV/MS. a) Reaction conditions for bio-PN and bio-PO. b) Exemplary UV chromatograms of bio-PO at pH 8.5 and at 0 and 16 hours, highlighting the internal standard (caffeine) and the compound. c) Reaction conditions for SM-PN and SM-PO. d) Exemplary UV chrommatogramms of SM-PN at pH 8.5 and at 0 and 16 hours, highlighting the internal standard (TPPO) and the compound. All experiments were prepared in triplicates. [picture]
For testing the thiol reactivity of bio-PN and bio-PO at pH 7.4, 10 µL of a 10 mM caffeine (internal standard) stock solution in Tris buffer pH 7.4 (final concentration 1 mM) and 10 µL of a 10 mM peptide stock solution in DMSO were added in 75 µL of 50 mM Tris buffer, pH 7.4. Immediately prior to the measurement, 5 µL of a 200 mM stock solution of reduced glutathione (final concentration 10 mM, 10.0 eq.) in Tris buffer (pH adjusted to 7.4) were added. The solutions were transferred to a sample vial and measured by UPLC-UV/MS at room temperature and at time points t0, t0.5h, t1h, t2h, t4h, t8h, t16h 1 µL of the reaction mixture was injected. For the analysis, the peak area of the internal standard was correlated with that of the starting material. The same protocol was followed at pH 8.5 using Tris buffer adjusted accordingly.
Similar conditions were applied in the case of SM-PN and SM-PO. […]

Row | SMILES | stability in neutral and basic pH ([1]; 50 mM Tris pH 7.4, 50 mM Tris pH 8.5, 50 mM TEAB pH 11.0, 3 mM compound, 48 h) | hydrolysis ([1]; pH 2 (0.1% TFA), 3 mM compound, TPPO internal standard) | hydrolysis of the starting material ([1]; pH 3.5 (50 mM NaOAc), 3 mM compound, 10% D2O, TPPO internal standard, 48 h) | consumption of starting material to glutathione adduct, pH 7.4 [2] | consumption of starting material to glutathione adduct, pH 8.5 [2] | stability at all tested pH values ([1]; pH 2, pH 3.5, pH 7.4, pH 8.5 and pH 11, 3 mM compound, 48 h)
1 | C#CP(=O)(O)Nc1ccc(CCNC(=O)CCCC[C@@H]2SC[C@@H]3NC(=O)N[C@@H]32)cc1 [SM-PN, N-(4-(2-biotinamidoethyl)phenyl)-P-ethynylphosphonamidic acid] | good stability in neutral and basic pH | already hydrolyzed in a few minutes | about 80% | no consumption of the starting material to a glutathione adduct was observed | no consumption of the starting material to a glutathione adduct was observed | –
2 | C#CP(=O)(O)Oc1ccc(CCNC(=O)CCCC[C@@H]2SC[C@@H]3NC(=O)N[C@@H]32)cc1 [SM-PO, 4-(2-biotinamidoethyl)phenyl ethynylphosphonic acid monoester] | – | – | – | no consumption of the starting material to a glutathione adduct was observed | no consumption of the starting material to a glutathione adduct was observed | excellent stability in all tested pH values
